Species on record: Rattus norvegicus
Assay: Open TG-GATES - Regimen: Single
Type: toxicity, organism-based, Sprague-Dawley
Set-up: regimen Single, gender Male, age 6 weeks
Settings: in vivo, po, 60 mg/kg, route gavage, dose level Low; for APTT / Bas / Eos / Fbg / Hb / Ht / MCH / MCHC / MCV / Mono / PT / Plat / RBC / Ret / WBC: tissue Blood; for ALP / ALT / CRE / DBIL / GLC / IP / K / LDH / Na / PL / RALB / TBIL / TC / TG / TP / gamma-GTP: tissue Plasma

## CCN(CC)C(=S)SSC(=S)N(CC)CC
3 h
  TERMINAL_BW: 215.7 g
  APTT: 20.7 s
  Bas: 0%
  Eos: 0.6%
  Fbg: 298.2 mg/dL
  Hb: 12.9 g/dL
  Ht: 39.9%
  MCH: 20.2 pg
  MCHC: 32.3%
  MCV: 62.6 fL
  Mono: 3.6%
  PT: 16.3 s
  Plat: 128.9 x10_4/uL
  RBC: 638.2 x10_4/ul
  Ret: 8.8%
  WBC: 84.6 x10_2/uL
  ALP: 1871.6 IU/L
  ALT: 41.6 IU/L
  CRE: 0.1 mg/dL
  DBIL: 0.002 mg/dL
  GLC: 178.2 mg/dL
  IP: 8.8 mg/dL
  K: 4.1 meq/L
  LDH: 188.6 IU/L
  Na: 141.4 meq/L
  PL: 128.6 mg/dL
  RALB: 3.2 g/dL
  TBIL: 0.016 mg/dL
  TC: 71 mg/dL
  TG: 70 mg/dL
  TP: 5.5 g/dL
  gamma-GTP: 1.4 IU/L
6 h
  TERMINAL_BW: 211.5 g
  APTT: 23.2 s
  Bas: 0%
  Eos: 0.8%
  Fbg: 293 mg/dL
  Hb: 13.2 g/dL
  Ht: 40.9%
  MCH: 20.3 pg
  MCHC: 32.4%
  MCV: 62.6 fL
  Mono: 3.4%
  PT: 16.3 s
  Plat: 125.2 x10_4/uL
  RBC: 653.8 x10_4/ul
  Ret: 7.3%
  WBC: 99 x10_2/uL
  ALP: 1256.6 IU/L
  ALT: 36.4 IU/L
  CRE: 0.1 mg/dL
  DBIL: 0 mg/dL
  GLC: 179 mg/dL
  IP: 9.1 mg/dL
  K: 4.3 meq/L
  LDH: 181.8 IU/L
  Na: 141.6 meq/L
  PL: 125.2 mg/dL
  RALB: 3 g/dL
  TBIL: 0.008 mg/dL
  TC: 68.6 mg/dL
  TG: 59.2 mg/dL
  TP: 5.3 g/dL
  gamma-GTP: 1 IU/L
9 h
  TERMINAL_BW: 210.6 g
  APTT: 23 s
  Bas: 0%
  Eos: 0.2%
  Fbg: 307.2 mg/dL
  Hb: 13.1 g/dL
  Ht: 40.1%
  MCH: 20.2 pg
  MCHC: 32.5%
  MCV: 62.3 fL
  Mono: 2.6%
  PT: 15.8 s
  Plat: 121 x10_4/uL
  RBC: 645 x10_4/ul
  Ret: 7.5%
  WBC: 93.7 x10_2/uL
  ALP: 1515 IU/L
  ALT: 32.8 IU/L
  CRE: 0.1 mg/dL
  DBIL: 0.002 mg/dL
  GLC: 188.8 mg/dL
  IP: 9.6 mg/dL
  K: 4.1 meq/L
  LDH: 160.4 IU/L
  Na: 141.2 meq/L
  PL: 149.4 mg/dL
  RALB: 3.1 g/dL
  TBIL: 0.018 mg/dL
  TC: 81.6 mg/dL
  TG: 99 mg/dL
  TP: 5.5 g/dL
  gamma-GTP: 1 IU/L
24 h
  TERMINAL_BW: 213.4 g
  APTT: 21.8 s
  Bas: 0%
  Eos: 0.4%
  Fbg: 274.6 mg/dL
  Hb: 12.6 g/dL
  Ht: 39%
  MCH: 20.3 pg
  MCHC: 32.3%
  MCV: 62.9 fL
  Mono: 2%
  PT: 16.6 s
  Plat: 117.1 x10_4/uL
  RBC: 620.4 x10_4/ul
  Ret: 7%
  WBC: 124.3 x10_2/uL
  ALP: 1307.4 IU/L
  ALT: 33.8 IU/L
  CRE: 0.2 mg/dL
  DBIL: 0 mg/dL
  GLC: 178 mg/dL
  IP: 6.5 mg/dL
  K: 4.3 meq/L
  LDH: 187.8 IU/L
  Na: 141.4 meq/L
  PL: 128.2 mg/dL
  RALB: 2.8 g/dL
  TBIL: 0.006 mg/dL
  TC: 74.6 mg/dL
  TG: 98 mg/dL
  TP: 5.1 g/dL
  gamma-GTP: 1 IU/L
